The values that follow come from PubChem BioAssay (NCI).

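1) Cells in 96-well plates. 2) Compound, 48 h, 5 concentrations. 3) Linear interpolation between surrounding doses. 4) Unreached endpoint = highest concentration. Abbreviation: GI50, concentration required for 50% inhibition of growth. Definition used: TGI = concentration required for complete inhibition of growth.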

Test systems include 786-0 renal; A549 NSCLC; BT-549 breast; IGROV1 ovarian; KM12 colon; NCI-H226 lung; RPMI-8226 leukemia; SK-MEL-28 melanoma; SK-OV-3 ovarian; UACC-257 melanoma.
What all share (assay): inhibition of tumour cell growth, NCI panel, 48 h

On to `CCCN(CCC)c1ccc(/C=C/c2ccc3cc(OCC)ccc3n2)cc1`, for which the GI50 is greater than 100 µM in the assay with 786-0 renal; 75.4 µM with A549 NSCLC; greater than 100 µM in the assay with BT-549 breast; greater than 100 µM with IGROV1 ovarian; greater than 100 µM with KM12 colon; 58.6 µM with NCI-H226 lung. The GI50 in the assay on RPMI-8226 leukemia is 6.29 µM; with SK-MEL-28 melanoma, greater than 100000 nM; with SK-OV-3 ovarian it was greater than 100 µM; in the assay on UACC-257 melanoma, greater than 100 µM. Further, the TGI in the assay on 786-0 renal, in the assay with A549 NSCLC, in the assay with BT-549 breast, with IGROV1 ovarian, with KM12 colon and in the assay on NCI-H226 lung was greater than 100 µM in each case. In addition, the TGI with RPMI-8226 leukemia, in the assay on SK-MEL-28 melanoma, in the assay on SK-OV-3 ovarian and in the assay on UACC-257 melanoma was greater than 100 µM in each case.

Take `CNC(=S)NC(=O)c1c(Cl)n(C(=O)OC(C)(C)C)c2ccccc12`: the GI50 with 786-0 renal is 91.1 µM; with A549 NSCLC, 84.3 µM; in the assay with BT-549 breast, 53.2 µM; in the assay with IGROV1 ovarian, 21 µM; with KM12 colon, 77.4 µM; with NCI-H226 lung it was greater than 100 µM. Besides, the GI50 with RPMI-8226 leukemia is 20.5 µM; with SK-MEL-28 melanoma, greater than 100000 nM; with SK-OV-3 ovarian, greater than 100 µM; with UACC-257 melanoma, 94.5 µM. Further, the TGI in the assay with 786-0 renal, in the assay with A549 NSCLC, in the assay with BT-549 breast, in the assay on IGROV1 ovarian, in the assay with KM12 colon and with NCI-H226 lung was greater than 100 µM each time. The TGI in the assay on RPMI-8226 leukemia was 68.9 µM; in the assay with SK-MEL-28 melanoma it was greater than 100 µM; with SK-OV-3 ovarian, greater than 100 µM; with UACC-257 melanoma, greater than 100 µM.

`C=C1C(C2(C)C(OC(C)=O)CC(=O)OC(C)(COC(C)=O)C2CC(=O)OC)C(OC=O)C(OC(=O)C(O)C(C)CC)C2(C)C(c3ccoc3)CC(=O)C12O` (stereo not drawn): the TGI was greater than 100 µM in the assay with 786-0 renal; greater than 100 µM with A549 NSCLC; greater than 30.5 µM in the assay on BT-549 breast; greater than 100 µM with IGROV1 ovarian; greater than 100 µM with KM12 colon; greater than 100 µM in the assay on NCI-H226 lung. Besides, the TGI with RPMI-8226 leukemia, in the assay on SK-MEL-28 melanoma, with SK-OV-3 ovarian and in the assay on UACC-257 melanoma was greater than 100 µM each time.

In the case of `Cc1ccc(Cc2cnc(NC(=O)/C=C/c3cccc(C)c3)s2)cc1`, the GI50 in the assay on 786-0 renal is 0.389 µM; in the assay on A549 NSCLC, 0.29 µM; with BT-549 breast, 0.256 µM; in the assay with IGROV1 ovarian it was 0.334 µM; with KM12 colon, 0.14 µM; in the assay on NCI-H226 lung, 0.608 µM. For the same compound, the GI50 was 0.175 µM in the assay on RPMI-8226 leukemia, 1350 nM in the assay on SK-MEL-28 melanoma, 0.85 µM with SK-OV-3 ovarian and greater than 42.3 µM in the assay on UACC-257 melanoma. Moreover, the TGI in the assay with 786-0 renal is 4.04 µM; with A549 NSCLC it was greater than 67.7 µM; in the assay on BT-549 breast, greater than 27.4 µM; in the assay on IGROV1 ovarian it was 15.5 µM; with KM12 colon it was greater than 48.4 µM; in the assay on RPMI-8226 leukemia it was 10.5 µM. Also, the TGI is greater than 100 µM in the assay on SK-MEL-28 melanoma, greater than 59.7 µM in the assay with SK-OV-3 ovarian and greater than 100 µM in the assay on UACC-257 melanoma.

Take `C=C1C(=O)O[C@H]2[C@H]1CC/C(COC(=O)c1cc3ccccc3o1)=C\CC[C@@]1(C)O[C@@H]21`: the GI50 is 1.81 µM with 786-0 renal; 2.91 µM in the assay on A549 NSCLC; 1.48 µM with BT-549 breast; 1.39 µM with IGROV1 ovarian; 2.02 µM with KM12 colon; 1.74 µM with NCI-H226 lung. The GI50 was 0.715 µM in the assay with RPMI-8226 leukemia, 1750 nM in the assay on SK-MEL-28 melanoma, 16.7 µM in the assay on SK-OV-3 ovarian and 1.52 µM in the assay on UACC-257 melanoma. For the same compound, the TGI in the assay on 786-0 renal came out at 3.45 µM; in the assay on A549 NSCLC it was 12 µM; with BT-549 breast, 3.29 µM; in the assay on IGROV1 ovarian, 3.23 µM; in the assay on KM12 colon, 4.61 µM; with NCI-H226 lung, 3.6 µM. Further, the TGI in the assay on RPMI-8226 leukemia was found to be 3.44 µM; in the assay with SK-MEL-28 melanoma it was 3.59 µM; in the assay with SK-OV-3 ovarian, 32.7 µM; with UACC-257 melanoma, 3.04 µM.

For the compound `C[C@@H](O)[C@H](NC(=O)N[C@@H](CC(N)=O)c1nc([C@@H](N)CO)no1)C(=O)O`, the GI50 with 786-0 renal, in the assay with A549 NSCLC, in the assay on BT-549 breast, in the assay with IGROV1 ovarian, in the assay with KM12 colon and with NCI-H226 lung was greater than 100 µM each time. Besides, the GI50 in the assay on RPMI-8226 leukemia was greater than 100 µM; in the assay with SK-MEL-28 melanoma, greater than 100000 nM; in the assay with SK-OV-3 ovarian it was greater than 100 µM; in the assay with UACC-257 melanoma it was greater than 100 µM. Moreover, the TGI in the assay on 786-0 renal, with A549 NSCLC, with BT-549 breast, in the assay on IGROV1 ovarian, in the assay on KM12 colon and with NCI-H226 lung was greater than 100 µM throughout. The TGI in the assay with RPMI-8226 leukemia, in the assay with SK-MEL-28 melanoma, with SK-OV-3 ovarian and with UACC-257 melanoma was greater than 100 µM throughout.

As to `O=C1CC(=O)N(C(=O)c2nn(-c3ccc(Cl)cc3)cc2O)N1`, the GI50 with 786-0 renal is 3.76 µM; with A549 NSCLC, 0.36 µM; with BT-549 breast, 0.296 µM; with IGROV1 ovarian it was 0.378 µM; in the assay on KM12 colon, 1.03 µM; in the assay with NCI-H226 lung, 0.724 µM. Moreover, the GI50 is 0.37 µM in the assay with RPMI-8226 leukemia, 2820 nM in the assay on SK-MEL-28 melanoma, 1.85 µM in the assay with SK-OV-3 ovarian and 0.8 µM with UACC-257 melanoma. Further, the TGI was greater than 64.5 µM in the assay on 786-0 renal; greater than 100 µM in the assay on A549 NSCLC; greater than 64.5 µM with BT-549 breast; 20.2 µM in the assay with IGROV1 ovarian; greater than 100 µM in the assay on KM12 colon; greater than 96.6 µM in the assay on NCI-H226 lung. The figures for the TGI in the assay on RPMI-8226 leukemia, in the assay on SK-MEL-28 melanoma and in the assay on SK-OV-3 ovarian were 11.1 µM, greater than 100 µM and greater than 100 µM, respectively.

Take `O=c1cc(N2CCN(CCCCCOc3cc(O)c4c(=O)cc(-c5ccccc5)oc4c3)CC2)c2ccccc2o1`: the GI50 was 6.92 µM with 786-0 renal; greater than 100 µM in the assay on A549 NSCLC; 57.9 µM in the assay on BT-549 breast; 47.4 µM in the assay with IGROV1 ovarian; 77.8 µM in the assay with KM12 colon; 23.9 µM in the assay with NCI-H226 lung. Moreover, the GI50 was 12.4 µM in the assay on RPMI-8226 leukemia, 61800 nM in the assay with SK-MEL-28 melanoma, greater than 100 µM in the assay with SK-OV-3 ovarian and greater than 100 µM in the assay on UACC-257 melanoma. The TGI in the assay with 786-0 renal, in the assay on A549 NSCLC, with BT-549 breast, in the assay on IGROV1 ovarian, in the assay on KM12 colon and with NCI-H226 lung was greater than 100 µM in each case. For the same compound, the TGI with RPMI-8226 leukemia, with SK-MEL-28 melanoma, with SK-OV-3 ovarian and in the assay on UACC-257 melanoma was greater than 100 µM throughout.
